Data set [1] deals with human embryonic stem cell derived neural stem cells (NSCs). Briefly: Neural Stem Cell Proliferation Assay (neurogenesis assay, ATP levels by CellTiterGlo). In kind it is cell-based. The conditions noted are these: 96 h, compound concentration at which 150% activity of control (100%) is reached, NSC proliferation by ATP level after 4 days incubation, dose response 8 μM to 8 nM. In outline:
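Human ESC-derived NSCs (dual SMAD inhibition) seeded 4 h before compounds, 11-point 2-fold series 8 μM–8 nM; 4 days at 37 °C, 5% CO2. ATP by CellTiterGlo luminescence as cell-number proxy, response as % of media control (0.25% DMSO); EC150 = concentration giving 150% of control.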

As to `N#Cc1cc(-c2ccc(Cl)c(Cl)c2)c2c(c1)cc1n2CCCNC1=O` [Example 249, 7-(3,4-Dichlorophenyl)-1-oxo-2,3,4,5-tetrahydro-[1,4]diazepino[1,2-a]indole-9-carbonitrile], the melting point came out at 217.5 °C. For the same compound, the EC (150% of control) in data set [1] was found to be 0.31 µM.
Take `Cc1c2n(c3c(-c4ccncc4)cc(C#N)cc13)CCCNC2=O` [Example 250, 11-Methyl-1-oxo-7-pyridin-4-yl-2,3,4,5-tetrahydro-[1,4]diazepino[1,2-a]indole-9-carbonitrile]: the melting point was determined as 285 °C. The compound also yielded an EC (150% of control) in data set [1] of 0.15 µM.
`Cc1c2n(c3c(-c4ccc(N)nc4)cc(C#N)cc13)CCCNC2=O` [Example 251, 7-(6-Aminopyridin-3-yl)-11-methyl-1-oxo-2,3,4,5-tetrahydro-[1,4]diazepino[1,2-a]indole-9-carbonitrile] returned a melting point of 306 °C. The EC (150% of control) in data set [1] came to 0.29 µM.
`N#Cc1cc(-c2ccc(Cl)c(F)c2)c2c(c1)cc1n2CCCNC1=O` [Example 252, 7-(4-Chloro-3-fluorophenyl)-1-oxo-2,3,4,5-tetrahydro-[1,4]diazepino[1,2-a]indole-9-carbonitrile] gave a melting point of 221.5 °C. The compound further had an EC (150% of control) in data set [1] of 1.38 µM.
`Cc1ccc(-c2cc(C#N)cc3cc4n(c23)CCCNC4=O)cc1F` [Example 253, 7-(3-Fluoro-4-methylphenyl)-1-oxo-2,3,4,5-tetrahydro-[1,4]diazepino[1,2-a]indole-9-carbonitrile] yielded a melting point of 250.5 °C. In data set [1], the EC (150% of control) amounted to 0.65 µM.
`N#Cc1cc(-c2ccc(OC(F)(F)F)cc2)c2c(c1)cc1n2CCCNC1=O` [Example 255, 1-Oxo-7-[4-(trifluoromethoxy)phenyl]-2,3,4,5-tetrahydro-[1,4]diazepino[1,2-a]indole-9-carbonitrile]: the melting point was 230.5 °C. Besides, the EC (150% of control) in data set [1] came to 0.3 µM.
Take `CS(=O)(=O)c1ccc(-c2cc(C#N)cc3cc4n(c23)CCCNC4=O)cc1` [Example 256, 7-(4-Methylsulfonylphenyl)-1-oxo-2,3,4,5-tetrahydro-[1,4]diazepino[1,2-a]indole-9-carbonitrile]: the melting point is 305.5 °C. Besides, the EC (150% of control) in data set [1] stood at 1.42 µM.
`N#Cc1cc(-c2ccnc(Cl)c2)c2c(c1)cc1n2CCCNC1=O` [Example 257, 7-(2-Chloropyridin-4-yl)-1-oxo-2,3,4,5-tetrahydro-[1,4]diazepino[1,2-a]indole-9-carbonitrile] had a melting point of 286.5 °C. The EC (150% of control) in data set [1] stood at 0.54 µM.
As for `Cc1ccc(-c2cc(C#N)cc3c(C)c4n(c23)CCNC4=O)cc1` [Example 258, 10-Methyl-6-(4-methylphenyl)-1-oxo-3,4-dihydro-2H-pyrazino[1,2-a]indole-8-carbonitrile], the melting point amounted to 277 °C. Further, in data set [1], the EC (150% of control) came to 0.035 µM.
Taken in the same sequence, the figures for `Cc1c2n(c3c(-c4cccc(F)c4)cc(C#N)cc13)CCNC2=O` [Example 259, 6-(3-Fluorophenyl)-10-methyl-1-oxo-3,4-dihydro-2H-pyrazino[1,2-a]indole-8-carbonitrile] were 226 °C and 0.06 µM.
The like results for `Cc1c2n(c3c(-c4ccc(Cl)c(Cl)c4)cc(C#N)cc13)CCNC2=O` [Example 260, 6-(3,4-Dichlorophenyl)-10-methyl-1-oxo-3,4-dihydro-2H-pyrazino[1,2-a]indole-8-carbonitrile] were, in that order, 245 °C and 0.12 µM.
In the case of `Cc1c2n(c3c(-c4cc(F)cc(F)c4)cc(C#N)cc13)CCNC2=O` [Example 261, 6-(3,5-Difluorophenyl)-10-methyl-1-oxo-3,4-dihydro-2H-pyrazino[1,2-a]indole-8-carbonitrile], the melting point was found to be 303 °C. Moreover, the EC (150% of control) in data set [1] is 0.091 µM.
Taken in the same sequence, the figures for `COc1ccc(-c2cc(C#N)cc3c(C)c4n(c23)CCCNC4=O)cc1` [Example 262, 7-(4-Methoxyphenyl)-11-methyl-1-oxo-2,3,4,5-tetrahydro-[1,4]diazepino[1,2-a]indole-9-carbonitrile] were 277 °C and 0.029 µM.
`N#Cc1cc(-c2ccc(CO)cc2)c2c(c1)cc1n2CCCNC1=O` [Example 266, 7-[4-(Hydroxymethyl)phenyl]-1-oxo-2,3,4,5-tetrahydro-[1,4]diazepino[1,2-a]indole-9-carbonitrile] yielded a melting point of 256.5 °C. Moreover, the EC (150% of control) in data set [1] was 0.93 µM.
Taken in the same sequence, the figures for `Cc1ccc(-c2cc(C#N)cc3c(C)c4n(c23)CCNC4=O)cc1F` [Example 267, 6-(3-Fluoro-4-methylphenyl)-10-methyl-1-oxo-3,4-dihydro-2H-pyrazino[1,2-a]indole-8-carbonitrile] were 255 °C and 0.71 µM.
The like results for `N#Cc1cccc(-c2cc(C#N)cc3cc4n(c23)CCCNC4=O)c1` [Example 269, 7-(3-Cyanophenyl)-1-oxo-2,3,4,5-tetrahydro-[1,4]diazepino[1,2-a]indole-9-carbonitrile] were, in that order, 225.5 °C and 1.09 µM.
As for `N#Cc1cc(-c2ccncc2)c2c(c1)cc1n2CCCNC1=O` [Example 271, 1-Oxo-7-pyridin-4-yl-2,3,4,5-tetrahydro-[1,4]diazepino[1,2-a]indole-9-carbonitrile], the melting point turned out to be 278.5 °C. This compound gave an EC (150% of control) in data set [1] of 0.65 µM.
The like results for `N#Cc1cc(-c2ccccc2)c2c(c1)cc1n2CCCNC1=O` [Example 274, 1-Oxo-7-phenyl-2,3,4,5-tetrahydro-[1,4]diazepino[1,2-a]indole-9-carbonitrile] were, in that order, 237.5 °C and 1.1 µM.
In turn, `COc1ccc(-c2cc(C#N)cc3cc4n(c23)CCCNC4=O)cc1` [Example 275, 7-(4-Methoxyphenyl)-1-oxo-2,3,4,5-tetrahydro-[1,4]diazepino[1,2-a]indole-9-carbonitrile] returned a melting point of 260.5 °C. The same compound yielded an EC (150% of control) in data set [1] of 1.11 µM.
In the case of `Cc1c2n(c3c(-c4ccc([N+](=O)[O-])cc4)cc(C#N)cc13)CCNC2=O` [Example 276, 10-Methyl-6-(4-nitrophenyl)-1-oxo-3,4-dihydro-2H-pyrazino[1,2-a]indole-8-carbonitrile], the melting point is 312 °C. Also, the EC (150% of control) in data set [1] was 0.11 µM.
The like results for `Cc1c2n(c3c(-c4ccc(CO)cc4)cc(C#N)cc13)CCNC2=O` [Example 277, 6-[4-(Hydroxymethyl)phenyl]-10-methyl-1-oxo-3,4-dihydro-2H-pyrazino[1,2-a]indole-8-carbonitrile] were, in that order, 265 °C and 0.025 µM.
For the compound `Cc1c2n(c3c(-c4ccc(Cl)nc4)cc(C#N)cc13)CCNC2=O` [Example 278, 6-(6-Chloropyridin-3-yl)-10-methyl-1-oxo-3,4-dihydro-2H-pyrazino[1,2-a]indole-8-carbonitrile], the melting point came to 318 °C. In data set [1], the EC (150% of control) turned out to be 0.44 µM.
Compound `Cc1c2n(c3c(-c4cccc(C#N)c4)cc(C#N)cc13)CCNC2=O` [Example 279, 6-(3-Cyanophenyl)-10-methyl-1-oxo-3,4-dihydro-2H-pyrazino[1,2-a]indole-8-carbonitrile] returned a melting point of 266 °C. Besides, the EC (150% of control) in data set [1] turned out to be 0.31 µM.

For orientation: melting point means the temperature of the solid-liquid transition.

The values are drawn from US9284321B2, “Piperazino[1,2-a]indol-1-ones and [1,4]diazepino[1,2-a]indol-1-one” (Hoffmann-La Roche Inc., priority 2012, dated 2016).
